Laboratory results from patent US9605013B2, “Derivatives of hemin with antibacterial and antiviral activity” (OBSCHESTVO S OGRANICHENNOI OTVETSTVENNOSTIYU …, priority 2011, dated 2017).

System: Enterococcus faecalis BKM B-871
Assay: Antibacterial activity, serial dilutions in liquid MH medium
Type: cell-based
Conditions: for MIC: MH medium, 20 h, 37° C., 100% growth inhibition; for MBC: no colonies on agarized MH medium
Method in brief: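 Broth microdilution in Mueller-Hinton medium at 37 °C with stirring, using exponential-phase cultures seeded at 5×10^4 to 1×10^5 cells/mL with twofold serial compound dilutions. Growth inhibition read as A595 after 20 h, corrected for compound absorbance; MIC and MBC determined.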

Compound	MIC	MBC
6,7-bis-[(Diamide N^α-L-Arginyl)-L-glutamyl]-Protohemin (IX)	25 µM	50 µM
C=CC1=C(C)c2cc3[n-]c(cc4[n-]c(cc5nc(cc1n2)C(C)=C5C=C)c(C)c4CCC(=O)N[C@@H](CCCNC(=N)N)C(N)=O)c(CCC(=O)N[C@@H](CCCNC(=N)N)C(N)=O)c3C.[Cl-].[Fe+3] [II, 6,7-bis-(Amide N^α-Arginyl)-Protohemin (IX)]	6.3 µM	12.5 µM
